Experimental data published in US10919916B2, “Boron-containing small molecules” (Bill & Melinda Gates Foundation, priority 2016, dated 2021).
Converted amounts (≈) assume the structure as drawn.

Experiments:
Format in all cases: cell-based
[1] = test system: Wolbachia pipientis in C6/36 cell line; assay: Anti-Wolbachia high-content assay; details: C6/36 (wAlbB) cells, 7 days at 26° C., 50% reduction of Wolbachia, read-out: EC50 Wolbachia pipientis in C6/36 cell line
How it was run: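 Wolbachia-infected C6/36 cells stained 15 minutes, then medium replaced and five fields per well imaged confocally at 60× with fluorescein filters. Each intact cell scored on cytoplasmic texture complexity.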

[2] = test system: Staphylococcus aureus, MRSA (ATCC 33591); assay: Antibacterial MIC assay (microbroth dilution, CLSI); details: microbroth dilution, cation-adjusted Mueller-Hinton broth, 35° C. for 16-20 hours, read-out: MIC Staphylococcus aureus, MRSA (ATCC 33591)
How it was run: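 Compound 2-fold dilution series tested against 5×10^5 CFU/mL bacteria prepared from 0.5 McFarland saline suspensions of overnight colonies. Medium was cation-adjusted Mueller-Hinton broth, supplemented with 3% lysed horse blood for the fastidious pneumococcus. Protocol followed CLSI M07-A10 and M100-S25.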

[3] = test system: Streptococcus pneumoniae (ATCC 49619); assay: as above; details: ATCC49619, microbroth dilution, 3% lysed horse blood, 35° C. for 16-20 hours, read-out: MIC Streptococcus pneumoniae (ATCC 49619)
How it was run: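 S. pneumoniae at 5×10^5 CFU/mL (from 0.5 McFarland saline suspension) was tested against 2-fold serial compound dilutions in cation-adjusted Mueller-Hinton broth plus 3% lysed horse blood, per CLSI M07-A10/M100-S25 microdilution guidelines.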

| EC50 [1] [nM] | MIC [2] [µg/mL] | MIC [3] [µg/mL] | Compound |
| --- | --- | --- | --- |
| 1 | < 0.25 | 0.5 to 2 (≈ 0.861 to 3.45 µM) | C=C[C@]1(C)C[C@@H](OC(=O)COc2ccc3c(c2)B(O)N(C(C)=O)N=C3)[C@]2(C)[C@H](C)CC[C@]3(C[C@H](O)C(=O)[C@H]32)[C@@H](C)[C@@H]1O [Compound 86, (2S,3aR,4R,5R,7S,8S,9R,9aS,12R)-2,8-dihydroxy-4,7,9,12-tetramethyl-3-oxo-7-vinyldecahydro-4,9a-propanocyclopenta[8]annulen-5-yl 2-((2-acetyl-1-hydroxy-1,2-dihydrobenzo[d][1,2,3]diazaborinin-7-yl)oxy)acetate] |
| 4 | < 0.25 | 0.5 to 2 (≈ 0.858 to 3.43 µM) | C=C[C@]1(C)C[C@@H](OC(=O)COc2ccc3c(c2)B(O)N(C(C)=O)N=C3)[C@]2(C)[C@H](C)CC[C@]3(C[C@H](F)C(=O)[C@H]32)[C@@H](C)[C@@H]1O [Compound 88, (2S,3aR,4R,5R,7S,8S,9R,9aS,12R)-2-fluoro-8-hydroxy-4,7,9,12-tetramethyl-3-oxo-7-vinyldecahydro-4,9a-propanocyclopenta[8]annulen-5-yl 2-((2-acetyl-1-hydroxy-1,2-dihydrobenzo[d][1,2,3]diazaborinin-7-yl)oxy)acetate] |
| 3 | < 0.25 | 0.5 to 2 (≈ 0.838 to 3.35 µM) | C=C[C@]1(C)C[C@@H](OC(=O)COc2ccc3c(c2)B(O)N(C(=O)OC)N=C3)[C@]2(C)[C@H](C)CC[C@]3(C[C@H](O)C(=O)[C@H]32)[C@@H](C)[C@@H]1O [Compound 90, Methyl 7-(2-(((2S,3aR,4R,5R,7S,8S,9R,9aS,12R)-2,8-dihydroxy-4,7,9,12-tetramethyl-3-oxo-7-vinyldecahydro-4,9a-propanocyclopenta[8]annulen-5-yl)oxy)-2-oxoethoxy)-1-hydroxybenzo[d][1,2,3]diazaborinine-2(1H)-carboxylate] |
| 3 | < 0.25 | 0.5 to 2 (≈ 0.835 to 3.34 µM) | C=C[C@]1(C)C[C@@H](OC(=O)COc2ccc3c(c2)B(O)N(C(=O)OC)N=C3)[C@]2(C)[C@H](C)CC[C@]3(C[C@H](F)C(=O)[C@H]32)[C@@H](C)[C@@H]1O [Compound 92, Methyl 7-(2-(((2S,3aR,4R,5R,7S,8S,9R,9aS,12R)-2-fluoro-8-hydroxy-4,7,9,12-tetramethyl-3-oxo-7-vinyldecahydro-4,9a-propanocyclopenta[8]annulen-5-yl)oxy)-2-oxoethoxy)-1-hydroxybenzo[d][1,2,3]diazaborinine-2(1H)-carboxylate] |
| 46 | < 0.25 | < 0.25 | C=C[C@]1(C)C[C@@H](OC(=O)COc2ccc3c(c2C)B(O)N(C(=O)OC)N=C3)[C@]2(C)[C@H](C)CC[C@]3(C[C@H](F)C(=O)[C@H]32)[C@@H](C)[C@@H]1O [Compound 95, Methyl 7-(2-(((2S,3aR,4R,5R,7S,8S,9R,9aS,12R)-2-fluoro-8-hydroxy-4,7,9,12-tetramethyl-3-oxo-7-vinyldecahydro-4,9a-propanocyclopenta[8]annulen-5-yl)oxy)-2-oxoethoxy)-1-hydroxy-8-methylbenzo[d][1,2,3]diazaborinine-2(1H)-carboxylate] |
| 63 | 0.5 to 2 (≈ 0.927 to 3.71 µM) | 0.5 to 2 (≈ 0.927 to 3.71 µM) | C=C[C@]1(C)C[C@@H](OC(=O)COc2ccc3c(c2)B(O)ON=C3)[C@]2(C)[C@H](C)CC[C@]3(C[C@H](O)C(=O)[C@H]32)[C@@H](C)[C@@H]1O [Compound 98, (2S,3aR,4R,5R,7S,8S,9R,9aS,12R)-2,8-dihydroxy-4,7,9,12-tetramethyl-3-oxo-7-vinyldecahydro-4,9a-propanocyclopenta[8]annulen-5-yl 2-((1-hydroxy-1H-benzo[d][1,2,6]oxazaborinin-7-yl)oxy)acetate] |
